Laboratory results published in patent US12194004B2, “Nano-delivery carrier for targeted tumor administration and application thereof” (Guizhou Provincial People's Hospital, priority 2023, dated 2025).

Test system: SKOV3 cells
Experiment: Cell viability detection with CCK-8 detection reagent
Type: cell-based
Settings: SKOV3 cells treated at different (increasing) concentrations for 24 h
Experimental: In order to verify whether RVT can cause death of the tumor cells, SKOV3 cells are treated with RVT at different concentrations for 24 h, and viability of the SKOV3 cells treated with RVT is detected by using a cell counting kit-8 (CCK-8) detection reagent.
In addition, the SKOV3 cells are treated with PEG-SPIO at different concentrations for 24 h, and the viability of the SKOV3 cells treated with PEG-SPIO is detected by using the CCK-8 detection reagent.
Furthermore, the SKOV3 cells are treated with RVT-encapsulated PEG-SPIO-RVT nanoparticles for 24 h, and the viability of the SKOV3 cells treated with RVT-encapsulated PEG-SPIO-RVT nanoparticles is detected by using the CCK-8 detection reagent. The results are the same as that of treating with RVT alone.

Compound: Oc1ccc(/C=C/c2cc(O)cc(O)c2)cc1 [RVT, 3,4′,5-trihydroxy-trans-stilbene]
- viability of the SKOV3 cells: gradually shows a downward trend
